Assay results taken from patent publication US8080371B2, “Markers for addiction” (The Washington University, priority 2006, dated 2011).

Columns and labels:
[1] = cigarette smoking, background statement; cited from earlier work
[2] = target: T1, α4β2α5D398 nAChR heterologously expressed in HEK293T cells (Mus musculus, UniProt O70174+Q9ERK7); experiment: Aequorin-based luminescence assay of agonist-evoked changes in intracellular calcium; assay type: cell-based
T1 construct: expressed in transfected cells; host or cells: HEK293T
T1 sequence (Q2MKA5 30-467): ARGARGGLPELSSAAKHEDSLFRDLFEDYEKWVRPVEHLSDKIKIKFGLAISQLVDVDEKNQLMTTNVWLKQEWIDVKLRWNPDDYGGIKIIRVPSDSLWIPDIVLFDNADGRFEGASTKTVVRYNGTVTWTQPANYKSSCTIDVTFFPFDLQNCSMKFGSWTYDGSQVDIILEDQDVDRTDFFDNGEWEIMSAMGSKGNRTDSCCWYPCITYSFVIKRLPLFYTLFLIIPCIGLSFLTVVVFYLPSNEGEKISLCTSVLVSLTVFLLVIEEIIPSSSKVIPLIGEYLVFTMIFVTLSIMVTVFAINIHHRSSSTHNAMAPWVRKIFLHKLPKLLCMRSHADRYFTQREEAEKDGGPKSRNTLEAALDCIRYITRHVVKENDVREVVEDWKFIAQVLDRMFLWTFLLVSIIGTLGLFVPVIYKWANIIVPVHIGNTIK
T1 sequence (Q9ERK7 26-501): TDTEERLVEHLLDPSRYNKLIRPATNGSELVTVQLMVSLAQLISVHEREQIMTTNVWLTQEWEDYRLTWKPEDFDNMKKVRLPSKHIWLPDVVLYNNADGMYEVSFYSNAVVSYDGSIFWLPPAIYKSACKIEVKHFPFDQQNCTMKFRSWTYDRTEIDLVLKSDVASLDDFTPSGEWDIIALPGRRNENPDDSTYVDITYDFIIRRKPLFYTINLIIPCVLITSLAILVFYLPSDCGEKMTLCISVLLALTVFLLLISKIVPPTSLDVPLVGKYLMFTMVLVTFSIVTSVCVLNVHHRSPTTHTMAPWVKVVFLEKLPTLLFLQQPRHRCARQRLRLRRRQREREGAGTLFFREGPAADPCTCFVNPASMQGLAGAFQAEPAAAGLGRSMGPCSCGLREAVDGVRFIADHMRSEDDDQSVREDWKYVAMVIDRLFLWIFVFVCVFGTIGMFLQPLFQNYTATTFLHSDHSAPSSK
T1 sequence (O70174 31-629): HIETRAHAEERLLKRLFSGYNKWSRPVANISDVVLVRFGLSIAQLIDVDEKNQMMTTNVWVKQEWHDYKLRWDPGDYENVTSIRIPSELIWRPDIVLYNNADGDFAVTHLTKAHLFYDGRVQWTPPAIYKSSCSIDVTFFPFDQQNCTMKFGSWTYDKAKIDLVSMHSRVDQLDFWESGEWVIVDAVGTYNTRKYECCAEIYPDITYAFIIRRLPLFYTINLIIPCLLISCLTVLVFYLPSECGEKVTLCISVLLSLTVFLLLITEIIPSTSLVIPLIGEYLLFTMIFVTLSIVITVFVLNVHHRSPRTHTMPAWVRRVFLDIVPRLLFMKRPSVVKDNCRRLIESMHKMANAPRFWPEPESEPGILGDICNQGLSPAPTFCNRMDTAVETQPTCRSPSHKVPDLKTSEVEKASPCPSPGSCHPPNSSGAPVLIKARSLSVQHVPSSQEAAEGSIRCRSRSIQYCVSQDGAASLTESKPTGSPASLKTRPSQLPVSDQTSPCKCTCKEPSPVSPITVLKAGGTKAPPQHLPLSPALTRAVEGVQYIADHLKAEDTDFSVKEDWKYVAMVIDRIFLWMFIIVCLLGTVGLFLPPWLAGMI
Experimental: (§1) HEK293T cells were maintained at 37° C. in a humidified, 5% CO2 environment in Dulbecco's modified Eagle's medium (high glucose, no pyruvate) (DMEM), 10% heat-inactivated fetal bovine serum and antibiotic/antimycotic (100 U/mL penicillin, 100 μg/mL streptomycin and 0.25 μg/mL amphotericin B). Culture reagents were purchased from either Biowhittaker (East Rutherford, N.J., USA) or Invitrogen (Carlsbad, Calif., USA).
Agonist-evoked changes in intracellular calcium was performed using an aequorin-based luminescence assay as previously described (Karadsheh et al., 2004). […]
For the epibatidine concentration-response curves, 50 μL of cells were added to each well of a 96-well opaque white plate and placed in a Victor3V plate reader (Perkin Elmer). Following a 1 second baseline read, 50 μl epibatidine was injected onto each sample and luminescence was recorded at 0.2 s intervals for 20 s immediately following the addition of agonist. At the completion of the agonist stimulation, 100 μL of a solution containing 0.1% Triton X-100 and 100 mM CaCl2 was injected into each well and luminescence was recorded for 5 s at 0.1 s intervals. […]

[3] = test system: α4β2α5N398 nAChR heterologously expressed in HEK293T cells; experiment: cell-based; parameters: species or system mouse; conditions: p<0.0005
Experimental: as §1
(§2) Agonist-evoked changes in intracellular calcium was performed using an aequorin-based luminescence assay as previously described (Karadsheh et al., 2004). HEK293T cells were seeded onto six-well plates (1.5×10^6 cells/well) and were transfected the following day with plasmids (0.25 μg/well for each plasmid) containing a human codon-optimized aequorin cDNA (Vernon and Printen 2002), the mouse α4 and β2 cDNAs and either the wild-type mouse α5 cDNA (D398) or a mouse α5 cDNA in which D398 was mutated to N398. Transfection was performed using either the LipofectAmine Plus Reagent (Invitrogen) or Fugene HD transfection reagent (Roche, Indianapolis, Ind.) as recommended by the manufacturers. […]
(§3) For the epibatidine concentration-response curves, 50 μL of cells were added to each well of a 96-well opaque white plate and placed in a Victor3V plate reader (Perkin Elmer). Following a 1 second baseline read, 50 μl epibatidine was injected onto each sample and luminescence was recorded at 0.2 s intervals for 20 s immediately following the addition of agonist. At the completion of the agonist stimulation, 100 μL of a solution containing 0.1% Triton X-100 and 100 mM CaCl2 was injected into each well and luminescence was recorded for 5 s at 0.1 s intervals. In order to control for differences in cell number per well as well as variation in transfection efficiency and coelenterazine loading, agonist responses were normalized by dividing the maximal peak value for the agonist-stimulated luminescence (L) by the total peak luminescence value (Lmax) (maximal peak agonist-stimulated luminescence+maximal peak luminescence resulting from cell lysis in the presence of high calcium).

[4] = target: T2, α4β2α5N398 nAChR heterologously expressed in HEK293T cells (Mus musculus, UniProt O70174+Q2MKA5+Q9ERK7, D397N); experiment: cell-based
T2 construct: expressed in transfected cells; host or cells: HEK293T
T2 sequence (Q2MKA5 30-467 D397N): as the sequence (Q2MKA5 30-467) above, with D368N counted along it
T2 sequence (O70174 31-629): as the sequence (O70174 31-629) above
T2 sequence (Q9ERK7 26-501): as the sequence (Q9ERK7 26-501) above
Experimental: as §1, §2, §3

SMILES | time to peak drug level in brain after inhalation [1] | EC50 [2] | maximal response to agonist per receptor ([2]; L/Lmax divided by fmol of nAChR per sample well, α4β2α5D398, mean ± SEM, N=12) | maximal response to agonist per receptor, α4β2α5N398 relative to α4β2α5D398 [3] | EC50 [4] | maximal response to agonist per receptor ([4]; L/Lmax divided by fmol of nAChR per sample well, α4β2α5N398, mean ± SEM, N=12)
CN1CCCC1c1cccnc1 (stereo not drawn) [nicotine] | ≤ 10 s | – | – | – | – | –
Clc1ccc(C2CC3CCC2N3)cn1 (stereo not drawn) [epibatidine] | – | 0.0259 ± 0.0015 nM | 0.147±0.01 | over two-fold higher | 0.0191 ± 0.0014 nM | 0.356±0.022
